Test results reported in patent US11503829B2, “Pesticidal compositions and related methods” (CJB Applied Technologies, LLC, priority 2020, dated 2022).
Read-outs that look alike come from different tables or passages of the source.

Columns and labels:
[1] = test system: Didymella fungus that is resistant to azoxystrobin; experiment: Petri dish radial growth bioassay, agar impregnated with Quadris and/or benzyl alcohol; assay type: cell-based
[2] = test system: black rust (Puccinia graminis tritici); assay type: in vivo; details: wheat, tebuconazole 2 fl oz/acre, no adjuvant, 21 days after treatment
[3] = test system: natural population of lowland brush; experiment: Woody brush control with Metsulfuron Methyl; details: MSM 1/5 oz/gal, no adjuvant; scale 1-5
[4] = Quadris 0 oz/ac, Benzyl Alcohol 6 oz/ac

OCc1ccccc1 [Benzyl Alcohol only, benzyl alcohol]
Radial growth, 24 Hours [1, 4]: 4.83
Radial growth, 48 Hours [1, 4]: 8.42
Radial growth, 72 Hours [1, 4]: 8.7
Radial growth, 96 Hours [1, 4]: 13.98
Radial growth, 120 Hours [1, 4]: 18.72
Radial growth, 144 Hours [1, 4]: 25.05
Reduction in fungal growth (observation) ([1]; benzyl alcohol alone, petri dish): no reduction in fungal growth

CC(C)(C)C(O)(CCc1ccc(Cl)cc1)Cn1cncn1 (stereo not shown) [Teb only, tebuconazole]
Disease Severity Rating ([2]; mix water 35° F.): 51.3
Disease Severity Rating ([2]; mix water 70° F.): 47

COC(=O)c1ccccc1S(=O)(=O)NC(=O)Nc1nc(C)nc(OC)n1 [MSM Alone]
Observation at 28 DAT [3]: 2.0
